Laboratory results: PubChem BioAssay AID2060353 (Molecular Pharmacology Branch, DTP, NCI, 2025)

Tested on: 521955-158-R2-J5-PDC spheroids with stroma, growth inhibition
Experiment: Anticancer human tumor 521955-158-R2-J5-PDC patient-derived pancreatic carcinoma cell line growth inhibition [TAK]
Conditions: for IC50: curve of first compound; for viability, T/C: stronger effect = lower value
Text: Combinatorial screen of targeted agents with TAK-243 and ipatasertib in multi-cell type tumor spheroids
A high-throughput screen of multi-cell type tumor spheroids was designed to identify active combinations of targeted small molecules and TAK-243 or ipatasertib. Complex spheroids include a stromal component modeled by human endothelial cells (HUVEC) and fibroblasts modeled by human mesenchymal stem cells (MSCs). The concentration ranges selected for each drug and investigational agent were based upon clinically achievable concentrations if the clinical Cmax of the agent was known.
Compounds. The drugs and investigational agents: TAK-243 (785004), ipatasertib (767898), everolimus (733504), selumetinib (741078), bortezomib (756655), trametinib (758246), ixazomib (758254), vemurafenib (761431), dabrafenib (764134), sapanisertib (764658), alpelisib (765974), and copanlisib (816437), were obtained from the National Cancer Institute (NCI) Developmental Therapeutics Program Chemical Repository. The FDA-approved anticancer drug set is available from the NCI Developmental Therapeutics Program. […] The stock solutions were prepared in dimethyl sulfoxide (DMSO, Sigma-Aldrich, St. Louis, MO, cat. D2650) at 800-fold the tested concentration and stored at -70 degrees C prior to their use. All drugs and investigational agents were tested over a range starting from a high concentration at or near the clinical Cmax and decreasing in half-log increments. If the clinical Cmax for an agent had not been determined, the highest concentration tested was 10 microM.
NCI60 Cell Culture. NCI60 cell lines were obtained from the NCI Developmental Therapeutics Program Tumor Repository. For each lot of cells, the Repository performed Applied Biosystems AmpFLSTR Identifiler testing with PCR amplification to confirm consistency with the published Identifier STR profile for each cell line. Cells were kept in continuous culture for no more than 20 passages. The optimal seeding densities for each of the cell lines at each time point assessed were determined prior to performing the concentration response studies. Briefly, the NCI60 human tumor lines were grown as monolayers in RPMI 1640 medium supplemented with 10% FBS and 2 mmol/L L-glutamine.
An additional 2 lines were from the NCI60 cell line panel including melanomas, MALME-3M and SK-MEL-2. Pooled donor human umbilical vein endothelial cells (HUVEC, Lonza, cat. CC-2519) and human mesenchymal stem cells (hMSC, Lonza, cat. PT-2501) were purchased from Lonza (Walkersville, MD).
PDMR cell lines were grown in complete medium (DC medium): Dulbecco's modified Eagle's medium (DMEM)/F12 supplemented with 5% fetal bovine serum (FBS), 2 mM L-glutamine, 100 U/mL penicillin and 100 µg/ml streptomycin, 0.4 µg/ml hydrocortisone, 10 ng/ml epidermal growth factor (EGF) recombinant human protein, 24 µg/mL adenine, and 0.1 mg/mL primocin. During culture from frozen stock vials, PDMR cells were cultured in the same medium containing 10 µM Y-27632 (see Table 3). The PDCs were cultured in complete DMEM/F12 media without 10 microM Y-27632 dihydrochloride for at least two passages prior to the screen. The pooled donor HUVEC and hMSC were cultured in endothelial cell growth medium 2 (PromoCell, Heidelberg, Germany, cat. C-22011) and mesenchymal stem cell growth medium 2 (PromoCell, cat. C-28009), respectively. For all experiments, HUVEC and hMSC were used at passages </=5.
For the pre-screen, cell seeding densities were determined from a titration spanning the range from 5,000 to 313 cells per well. The mct-spheroids including 60% malignant cells, 25% HUVEC and 15% MSC dispensed as a mixture into U-bottom Ultra-Low Attachment 384-well plates (Corning, NY)
High-throughput Drug Combination Screening.
Prior to their inoculation into 384-well plates, malignant cells, HUVEC, and hMSC were removed from T flasks using TrypLE express (Thermo Fisher Scientific, cat. 12605036) and harvested by centrifugation for 5 min at 233 x g. […]

[1] = second compound 0.3 µM, first compound 0.00949 µM
[2] = second compound 0.3 µM, first compound 0.03 µM
[3] = second compound 0.949 µM, first compound 0.00949 µM
[4] = second compound 0.949 µM, first compound 0.03 µM
[5] = second compound 3 µM, first compound 0.00949 µM
[6] = second compound 3 µM, first compound 0.03 µM
[7] = second compound 9.49 µM, first compound 0.00949 µM
[8] = second compound 9.49 µM, first compound 0.03 µM
[9] = second compound 30 µM, first compound 0.00949 µM
[10] = second compound 30 µM, first compound 0.03 µM
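Note: spheroids exposed to drugs for seven days before readout.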
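Throughout, for viability, T/C: 100% = DMSO vehicle control viability.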

CC(=O)Nc1cccc(-n2c(=O)n(C3CC3)c(=O)c3c(Nc4ccc(I)cc4F)n(C)c(=O)c(C)c32)c1 + CC(C)NCC(C(=O)N1CCN(c2ncnc3c2C(C)CC3O)CC1)c1ccc(Cl)cc1
IC50 (second compound 0.3 µM): 0.714 nM | IC50 (second compound 0.949 µM): 0.283 nM | IC50 (second compound 3 µM): 0.267 nM | IC50 (second compound 9.49 µM): 0.394 nM | IC50 (second compound 30 µM): 0.109 nM | viability, T/C (second compound 0.3 µM, first compound 94.9 pM): 94.6% | viability, T/C (second compound 0.3 µM, first compound 0.0003 µM): 67.8% | viability, T/C (second compound 0.3 µM, first compound 0.000949 µM): 40.3% | viability, T/C (second compound 0.3 µM, first compound 0.003 µM): 33.8% | viability, T/C [1]: 29.3% | viability, T/C [2]: 17.7% | viability, T/C (second compound 0.949 µM, first compound 94.9 pM): 75.4% | viability, T/C (second compound 0.949 µM, first compound 0.0003 µM): 46.7% | viability, T/C (second compound 0.949 µM, first compound 0.000949 µM): 31.9% | viability, T/C (second compound 0.949 µM, first compound 0.003 µM): 19.5% | viability, T/C [3]: 11.9% | viability, T/C [4]: 5.36% | viability, T/C (second compound 3 µM, first compound 94.9 pM): 62.6% | viability, T/C (second compound 3 µM, first compound 0.0003 µM): 46.9% | viability, T/C (second compound 3 µM, first compound 0.000949 µM): 37.6% | viability, T/C (second compound 3 µM, first compound 0.003 µM): 22.1% | viability, T/C [5]: 12.8% | viability, T/C [6]: 4.27% | viability, T/C (second compound 9.49 µM, first compound 94.9 pM): 91.6% | viability, T/C (second compound 9.49 µM, first compound 0.0003 µM): 53.6% | viability, T/C (second compound 9.49 µM, first compound 0.000949 µM): 33.2% | viability, T/C (second compound 9.49 µM, first compound 0.003 µM): 20% | viability, T/C [7]: 10.8% | viability, T/C [8]: 4.02% | viability, T/C (second compound 30 µM, first compound 94.9 pM): 51.5% | viability, T/C (second compound 30 µM, first compound 0.0003 µM): 38.6% | viability, T/C (second compound 30 µM, first compound 0.000949 µM): 18.3% | viability, T/C (second compound 30 µM, first compound 0.003 µM): 8.52% | viability, T/C [9]: 3.18% | viability, T/C [10]: 0.96%

CC(C)CC(NC(=O)C(Cc1ccccc1)NC(=O)c1cnccn1)B(O)O (stereo not given) + CC(C)NCC(C(=O)N1CCN(c2ncnc3c2C(C)CC3O)CC1)c1ccc(Cl)cc1
IC50 (second compound 0.3 µM): 5.69 nM | IC50 (second compound 0.949 µM): 5.25 nM | IC50 (second compound 3 µM): 4.97 nM | IC50 (second compound 9.49 µM): 5.95 nM | IC50 (second compound 30 µM): 3.86 nM | viability, T/C (second compound 0.3 µM, first compound 31.6 pM): 105% | viability, T/C (second compound 0.3 µM, first compound 0.0001 µM): 101% | viability, T/C (second compound 0.3 µM, first compound 0.000316 µM): 91.4% | viability, T/C (second compound 0.3 µM, first compound 0.001 µM): 92.8% | viability, T/C (second compound 0.3 µM, first compound 0.00316 µM): 93.9% | viability, T/C (second compound 0.3 µM, first compound 0.01 µM): 7.88% | viability, T/C (second compound 0.949 µM, first compound 31.6 pM): 80.2% | viability, T/C (second compound 0.949 µM, first compound 0.0001 µM): 85.4% | viability, T/C (second compound 0.949 µM, first compound 0.000316 µM): 78.1% | viability, T/C (second compound 0.949 µM, first compound 0.001 µM): 82.6% | viability, T/C (second compound 0.949 µM, first compound 0.00316 µM): 91.8% | viability, T/C (second compound 0.949 µM, first compound 0.01 µM): 7.37% | viability, T/C (second compound 3 µM, first compound 31.6 pM): 70% | viability, T/C (second compound 3 µM, first compound 0.0001 µM): 81.6% | viability, T/C (second compound 3 µM, first compound 0.000316 µM): 76.6% | viability, T/C (second compound 3 µM, first compound 0.001 µM): 78.2% | viability, T/C (second compound 3 µM, first compound 0.00316 µM): 81.8% | viability, T/C (second compound 3 µM, first compound 0.01 µM): 7.09% | viability, T/C (second compound 9.49 µM, first compound 31.6 pM): 100% | viability, T/C (second compound 9.49 µM, first compound 0.0001 µM): 110% | viability, T/C (second compound 9.49 µM, first compound 0.000316 µM): 111% | viability, T/C (second compound 9.49 µM, first compound 0.001 µM): 94.3% | viability, T/C (second compound 9.49 µM, first compound 0.00316 µM): 113% | viability, T/C (second compound 9.49 µM, first compound 0.01 µM): 4.23% | viability, T/C (second compound 30 µM, first compound 31.6 pM): 54.3% | viability, T/C (second compound 30 µM, first compound 0.0001 µM): 64.6% | viability, T/C (second compound 30 µM, first compound 0.000316 µM): 56.2% | viability, T/C (second compound 30 µM, first compound 0.001 µM): 56.7% | viability, T/C (second compound 30 µM, first compound 0.00316 µM): 68.6% | viability, T/C (second compound 30 µM, first compound 0.01 µM): 1.83%

Cn1cnc2c(F)c(Nc3ccc(Br)cc3Cl)c(C(=O)NOCCO)cc21 + CC(C)NCC(C(=O)N1CCN(c2ncnc3c2C(C)CC3O)CC1)c1ccc(Cl)cc1
IC50 (second compound 0.3 µM): 25.7 nM | IC50 (second compound 0.949 µM): < 9.49 nM | IC50 (second compound 3 µM): < 9.49 nM | IC50 (second compound 9.49 µM): 20.2 nM | IC50 (second compound 30 µM): < 9.49 nM | viability, T/C [1]: 64.4% | viability, T/C [2]: 42.6% | viability, T/C (second compound 0.3 µM, first compound 0.0949 µM): 36.7% | viability, T/C (second compound 0.3 µM, first compound 0.3 µM): 38.3% | viability, T/C (second compound 0.3 µM, first compound 0.949 µM): 27.7% | viability, T/C (second compound 0.3 µM, first compound 3 µM): 20.4% | viability, T/C [3]: 48.9% | viability, T/C [4]: 38.9% | viability, T/C (second compound 0.949 µM, first compound 0.0949 µM): 28.5% | viability, T/C (second compound 0.949 µM, first compound 0.3 µM): 20.9% | viability, T/C (second compound 0.949 µM, first compound 0.949 µM): 15.8% | viability, T/C (second compound 0.949 µM, first compound 3 µM): 5.06% | viability, T/C [5]: 44.8% | viability, T/C [6]: 38.5% | viability, T/C (second compound 3 µM, first compound 0.0949 µM): 28.6% | viability, T/C (second compound 3 µM, first compound 0.3 µM): 25% | viability, T/C (second compound 3 µM, first compound 0.949 µM): 14.1% | viability, T/C (second compound 3 µM, first compound 3 µM): 5.64% | viability, T/C [7]: 61% | viability, T/C [8]: 45% | viability, T/C (second compound 9.49 µM, first compound 0.0949 µM): 29% | viability, T/C (second compound 9.49 µM, first compound 0.3 µM): 21.3% | viability, T/C (second compound 9.49 µM, first compound 0.949 µM): 13.5% | viability, T/C (second compound 9.49 µM, first compound 3 µM): 5.67% | viability, T/C [9]: 40.2% | viability, T/C [10]: 21.9% | viability, T/C (second compound 30 µM, first compound 0.0949 µM): 17.9% | viability, T/C (second compound 30 µM, first compound 0.3 µM): 10% | viability, T/C (second compound 30 µM, first compound 0.949 µM): 3.77% | viability, T/C (second compound 30 µM, first compound 3 µM): 1.5%
